Data taken from patent publication US10894255B2, “Leukocyte and microparticles fractionation using microfluidics” (Nanyang Technological University, priority 2015, dated 2021).

Key:
Assay type in all cases: cell-based, human
[1] = tested on: PSGL-1 expression on neutrophils; assay: Flow cytometric analysis of PSGL-1 expression on healthy and treated neutrophils; conditions: glucose 30 mM, TNF-α 10 ng/mL or PMA 1 μM treated vs healthy neutrophils; flow cytometry
Experimental: (§1) (A) Image overlay (60× magnification) from captured cell rolling videos highlight distinct differences in rolling trajectories between healthy and TNF-α-treated neutrophils. (B) Cumulative frequency curves of neutrophil rolling speed for healthy, glucose-treated (30 mM), TNF-α-treated (10 ng/mL) and PMA-treated (1 μM) neutrophils. […] Flow cytometric analysis of (C) PSGL-1 and (D) CD11b expression on healthy and treated neutrophils. Cells were incubated with mouse APC anti-human PSGL-1 IgG2a/mouse APC IgG2a isotype and FITC mouse anti-human CD11b (activated) IgG1/FITC mouse IgG1 isotype.
(§2) To study neutrophil rolling phenotype on E-selectin, a straight microchannel (1 cm (l)×400 μm (w)×60 μm (h)) with recombinant human E-selectin (50 μg/mL) was coated to simulate flow conditions in post capillary venules (˜1-10 dynecm^−2). DFF-sorted neutrophils were pumped into the channel at physiological shear conditions (2 dynecm^−2) and timelapse imaging was used to capture neutrophil rolling. A MATLAB tracking algorithm was developed to track neutrophil rolling trajectories and speed measurement for high throughput single cell analysis. […]

[2] = tested on: CD11b expression on neutrophils; assay: Flow cytometric analysis of CD11b expression on healthy and treated neutrophils; conditions: glucose 30 mM, TNF-α 10 ng/mL or PMA 1 μM treated vs healthy neutrophils; flow cytometry
Experimental: as §1, §2

[3] = tested on: DFF-purified neutrophils rolling on E-selectin; assay: Microfluidic neutrophil rolling assay on E-selectin-coated microchannel; conditions: for Neutrophil rolling speed on E-selectin: DFF-sorted neutrophils treated with glucose 30 mM, TNF-α 10 ng/mL or PMA 1 μM, shear 2 dynecm^−2, compared with healthy neutrophils, P<0.005
Text: In another aspect, the present invention also relates to a microfluidic flow channel, wherein its inner wall is coated with E-selectin. Such channel may have a length of at least 0.1 cm. Preferably, the channel has a length of 0.5-2 cm. The width may be at least 200 μm, preferably between 350-500 μm. The channel height may be at least 40 μm, preferably between 45-75 μm and more preferably the height is 60 μm. An example to determine the rolling speed by using an E-selectin coated channel is given below. Briefly, a straight microchannel (1 cm length by 400 μm width by 60 μm height) can be coated with E-selectin (50 μg/mL, Peprotech) for 1 h at 4° C. and blocked with 0.5% BSA in PBS for 30 min at room temperature. After blocking, the channel can be connected to a syringe loaded with 0.1% BSA in PBS to prime and wash away excess E-selectin in the channel. For rolling assay, CaCl2 (20 μM, Sigma-Aldrich) can be added to the DFF-purified neutrophils to facilitate the calcium-dependent interactions of neutrophil binding and rolling on E-selectin. ˜10-20 μL of DFF-purified neutrophils (˜10^6 cells/mL) can be loaded at the inlet reservoir and the syringe can be set to withdraw at 2.6 μL/min (˜2 dynecm^−2) to initiate neutrophil rolling. Phase contrast image can be captured for 30 s at the centre of the microchannel every 0.5 s interval (total of 61 frames) at 20× magnification using MetaMorph software (Molecular Devices). […] The neutrophils can then be washed at 1000×g for 4 min and resuspended to a concentration of ˜10^6 cells/mL with 20 μM CaCl2 for rolling assay.
To study neutrophil rolling phenotype on E-selectin, a straight microchannel (1 cm (l)×400 μm (w)×60 μm (h)) with recombinant human E-selectin (50 μg/mL) was coated to simulate flow conditions in post capillary venules (˜1-10 dynecm^−2). DFF-sorted neutrophils were pumped into the channel at physiological shear conditions (2 dynecm^−2) and timelapse imaging was used to capture neutrophil rolling. A MATLAB tracking algorithm was developed to track neutrophil rolling trajectories and speed measurement for high throughput single cell analysis. […] These differences in rolling phenotypes were further investigated by measuring neutrophil PSGL-1 expression, which is known to mediate leukocyte rolling on E-selectin, as well as CD11b, a Mac-1 integrin expressed on leukocytes that supports adhesion to E-selectin.
After having established that neutrophils from T2DM patients rolled faster on E-selectin as compared to healthy subjects, it was determined if these functional differences can be associated to clinical conditions by analyzing rolling speed frequencies in T2DM patients that are higher than the average rolling speed of healthy subjects (≥5 μm/sec). […]

Compound	PSGL-1 expression on neutrophils [1]	Neutrophil CD11b level [2]	Neutrophil rolling speed on E-selectin [3]	Average rolling speed of drug-treated neutrophils ([3]; DFF-purified neutrophils of healthy subjects incubated with metformin 1 mM or pravastatin 20 μM for 1 h, vs untreated controls, all paired observations, P<0.05)	Neutrophil rolling trajectories on E-selectin ([3]; TNF-α-activated neutrophils vs healthy neutrophils (steady rolling in a straight path))
CCCCCCCCCCCCCC(=O)O[C@@H]1[C@@H](C)[C@@]2(O)[C@@H](C=C(CO)C[C@]3(O)C(=O)C(C)=C[C@@H]23)[C@@H]2C(C)(C)[C@]12OC(C)=O [PMA]	downregulation was more significant	higher increase	did not roll, but instead adhered firmly on E-selectin	–	–
CN(C)C(=N)N=C(N)N [metformin]	–	–	–	higher than controls	–
tumor necrosis factor alpha [TNF-α]	decreased	–	higher than healthy neutrophils	–	discontinuous with “flipping” motions
